From US20230150986A1, “ANTAGONISTS OF THE MUSCARINIC ACETYLCHOLINE RECEPTOR M4” (Vanderbilt University, priority 2019, published 2023)
Where two headings read alike, the source gives them in different places.

What was measured:
P-gp = biological target: T1, P-gp (Homo sapiens, UniProt P08183); assay: P-gp efflux in MDR1-MDCK cell monolayers; type: in vitro ADME; conditions: dog, pH 7.4, MDCK-MDR1, 5 μM
T1 construct: expressed in transfected cells; host or cells: MDR1-MDCK
Protocol: MDR1-MDCK cell monolayers were grown to confluence on collagen-coated, microporous membranes in 12-well assay plates. The permeability assay buffer was Hanks' balanced salt solution containing 10 mM HEPES and 15 mM glucose at a pH of 7.4. The buffer in the receiver chamber also contained 1% bovine serum albumin. The dosing solution concentration was 5 μM of test article in the assay buffer. Cell monolayers were dosed on the apical side (A- to -B) or basolateral side (B- to -A) and incubated at 37° C. with 5% CO2 in a humidified incubator. Samples were taken from the donor and receiver chambers at 120 minutes Each determination was performed in duplicate. The flux of lucifer yellow was also measured post-experimentally for each monolayer to ensure no damage was inflicted to the cell monolayers during the flux period. All samples were assayed by LC-MS/MS using electrospray ionization.

cytochrome P450 1A2 = biological target: T2, cytochrome P450 1A2 (Homo sapiens, UniProt P05177); assay: Cytochrome P450 cocktail inhibition assay, 1A2 (phenacetin); type: in vitro ADME; conditions: human liver microsomes 0.1 mg/mL; read-out: CYP Inhibition (1A2)
T2 construct: human liver microsomes (HLM; 0.1 mg/mL); from tissue; host or cells: human liver microsomes
T2 sequence (P05177 1-516): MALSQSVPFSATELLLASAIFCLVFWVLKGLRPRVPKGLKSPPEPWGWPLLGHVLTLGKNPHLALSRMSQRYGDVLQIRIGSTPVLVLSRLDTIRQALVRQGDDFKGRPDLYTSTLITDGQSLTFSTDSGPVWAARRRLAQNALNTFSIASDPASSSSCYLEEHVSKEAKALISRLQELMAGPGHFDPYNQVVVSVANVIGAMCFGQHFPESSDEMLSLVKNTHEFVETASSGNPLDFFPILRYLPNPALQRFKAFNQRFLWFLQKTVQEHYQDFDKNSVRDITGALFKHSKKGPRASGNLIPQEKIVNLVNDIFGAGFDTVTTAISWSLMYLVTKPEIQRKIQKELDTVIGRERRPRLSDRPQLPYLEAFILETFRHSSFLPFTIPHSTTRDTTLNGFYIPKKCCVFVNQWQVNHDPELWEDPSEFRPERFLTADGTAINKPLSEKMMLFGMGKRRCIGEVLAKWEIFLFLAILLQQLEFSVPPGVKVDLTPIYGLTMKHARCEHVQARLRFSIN
Protocol: (§1) Solutions of substrates for cytochrome P450 enzymes (1A2: Phenacetin, 10 μM; 2C9: Diclofenac, 5 μM; 2D6: Dextromethorphan, 5 μM; 3A4: Midazolam, 2 μM; as a mixture), test compound (VU6028418; multiple concentrations), and the positive control for pan-P450 inhibition (miconazole; multiple concentrations) were prepared. A reaction mixture of assay buffer (100 mM Kpi at pH 7.4), human liver microsomes (HLM; 0.1 mg/mL), and the substrate mixture were aliquoted into a 96-deepwell plate. The test compound and control were then added to the plate such that the final concentration of test compound ranged from 0.1-30 μM (two replicates per concentration). The assay plate was vortexed (briefly) and pre-incubated at 37° C. in an orbital shaker for 15 minutes. The reaction was initiated by addition of NADPH (1 mM, final concentration) and continued for 8 min before it was quenched by acetonitrile (2× volume) containing an LCMS internal standard (carbamazepine, 50 nM). The plate was then centrifuged (4000 rcf, 4° C., 10 min), and the resulting supernatant was diluted with water (1× volume) for LC-MS/MS. Assay samples were analyzed via electrospray ionization on an AB Sciex API-4000 (Foster City, Calif.) triple-quadrupole mass spectrometer coupled to Agilent Technologies 1290 Infinity series pumps (Santa Clara, Calif.), and a Leap Technologies CTC PAL auto -sampler (Carrboro, NC). Analytes were separated by gradient elution on a Phenomenex Kinetex (C18 2.1×50 mm 5 μm) column (Torrance, Calif.) thermostated at 40° C. The HPLC mobile phase A was 0.1% formic acid in water (pH unadjusted), and the mobile phase B was 0.1% formic acid in acetonitrile (pH unadjusted). […] The total run time was 2.5 min and the HPLC flow rate was 0.5 mL/min. The source temperature was set at 500° C. and mass spectral analyses were performed using multiple reaction monitoring (MRM) with mass transitions specific to each substrate's metabolite utilizing a Turbo-Ionspray® source in positive ionization mode (5.0 kV spray voltage). The test compound and control IC50 values for each enzyme were obtained by quantitating the inhibition of metabolite formation for each substrate. A 0 μM test compound (or control) conditions represented 100% enzymatic activity, and the effect of increasing test compound concentrations on enzymatic activity was then calculated from the % of control activity. Inhibition curves were fitted using XLfit 5.2.2 (four-parameter logistic model, equation 201) in order to calculate the concentration that produced half-maximal inhibition (IC50) of each enzyme.

cytochrome P450 3A4 = biological target: T3, cytochrome P450 3A4 (Homo sapiens, UniProt P08684); assay: Cytochrome P450 cocktail inhibition assay, 3A4 (midazolam); type: in vitro ADME; conditions: human liver microsomes 0.1 mg/mL; read-out: CYP Inhibition (3A4)
T3 construct: human liver microsomes (HLM; 0.1 mg/mL); from tissue; host or cells: human liver microsomes
T3 sequence (P08684 whole entry): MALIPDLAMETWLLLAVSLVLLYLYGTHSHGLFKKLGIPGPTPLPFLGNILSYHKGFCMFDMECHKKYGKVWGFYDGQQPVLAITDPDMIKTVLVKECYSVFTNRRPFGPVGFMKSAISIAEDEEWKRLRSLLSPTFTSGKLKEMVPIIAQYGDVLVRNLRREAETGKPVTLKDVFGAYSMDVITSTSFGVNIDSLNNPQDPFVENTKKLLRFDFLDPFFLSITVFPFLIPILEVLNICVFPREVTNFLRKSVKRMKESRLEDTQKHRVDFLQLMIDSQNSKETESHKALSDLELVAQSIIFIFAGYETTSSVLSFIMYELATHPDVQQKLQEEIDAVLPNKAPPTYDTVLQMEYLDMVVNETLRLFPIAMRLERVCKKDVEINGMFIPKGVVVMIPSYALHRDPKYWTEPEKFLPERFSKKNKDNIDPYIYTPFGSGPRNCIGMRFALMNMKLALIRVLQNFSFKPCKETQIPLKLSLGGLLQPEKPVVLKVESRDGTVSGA
Protocol: as §1

cytochrome P450 2C9 = biological target: T4, cytochrome P450 2C9 (Homo sapiens, UniProt P11712); assay: Cytochrome P450 cocktail inhibition assay, 2C9 (diclofenac); type: in vitro ADME; conditions: human liver microsomes 0.1 mg/mL; read-out: CYP Inhibition (2C9)
T4 construct: human liver microsomes (HLM; 0.1 mg/mL); from tissue; host or cells: human liver microsomes
T4 sequence (P11712 whole entry): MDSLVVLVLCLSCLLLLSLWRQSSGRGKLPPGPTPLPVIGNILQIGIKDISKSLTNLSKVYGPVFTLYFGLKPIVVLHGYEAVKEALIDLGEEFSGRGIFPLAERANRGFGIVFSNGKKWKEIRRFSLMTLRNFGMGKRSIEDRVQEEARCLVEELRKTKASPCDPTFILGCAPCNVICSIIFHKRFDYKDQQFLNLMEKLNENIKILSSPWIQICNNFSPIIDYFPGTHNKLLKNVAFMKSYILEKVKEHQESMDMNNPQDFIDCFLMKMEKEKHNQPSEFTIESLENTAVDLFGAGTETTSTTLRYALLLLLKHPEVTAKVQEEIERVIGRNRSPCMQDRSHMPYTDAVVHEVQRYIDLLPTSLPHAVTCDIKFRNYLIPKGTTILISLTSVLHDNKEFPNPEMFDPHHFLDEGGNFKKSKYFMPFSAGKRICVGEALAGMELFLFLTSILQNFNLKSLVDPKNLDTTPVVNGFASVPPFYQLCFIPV
Protocol: as §1

cytochrome P450 2D6 = biological target: T5, cytochrome P450 2D6 (Homo sapiens, UniProt P10635); assay: Cytochrome P450 cocktail inhibition assay, 2D6 (dextromethorphan); type: in vitro ADME; conditions: human liver microsomes 0.1 mg/mL; read-out: CYP Inhibition (2D6)
T5 construct: human liver microsomes (HLM; 0.1 mg/mL); from tissue; host or cells: human liver microsomes
T5 sequence (P10635 whole entry): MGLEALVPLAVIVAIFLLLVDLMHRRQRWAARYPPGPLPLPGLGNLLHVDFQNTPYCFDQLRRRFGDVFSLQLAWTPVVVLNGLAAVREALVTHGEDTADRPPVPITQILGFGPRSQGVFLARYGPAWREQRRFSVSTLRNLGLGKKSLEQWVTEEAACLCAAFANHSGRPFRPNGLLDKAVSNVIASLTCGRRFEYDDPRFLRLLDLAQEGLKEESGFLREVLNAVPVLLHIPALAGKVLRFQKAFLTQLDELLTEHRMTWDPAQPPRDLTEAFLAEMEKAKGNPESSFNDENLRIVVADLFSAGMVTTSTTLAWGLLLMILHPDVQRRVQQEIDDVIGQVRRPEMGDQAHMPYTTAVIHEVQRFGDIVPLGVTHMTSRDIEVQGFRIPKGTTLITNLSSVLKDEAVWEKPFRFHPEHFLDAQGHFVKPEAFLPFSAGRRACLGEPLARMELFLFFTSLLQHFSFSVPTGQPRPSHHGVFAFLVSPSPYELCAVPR
Protocol: as §1

mice = conditions: cited from earlier work

T1 sequence (P08183 whole entry): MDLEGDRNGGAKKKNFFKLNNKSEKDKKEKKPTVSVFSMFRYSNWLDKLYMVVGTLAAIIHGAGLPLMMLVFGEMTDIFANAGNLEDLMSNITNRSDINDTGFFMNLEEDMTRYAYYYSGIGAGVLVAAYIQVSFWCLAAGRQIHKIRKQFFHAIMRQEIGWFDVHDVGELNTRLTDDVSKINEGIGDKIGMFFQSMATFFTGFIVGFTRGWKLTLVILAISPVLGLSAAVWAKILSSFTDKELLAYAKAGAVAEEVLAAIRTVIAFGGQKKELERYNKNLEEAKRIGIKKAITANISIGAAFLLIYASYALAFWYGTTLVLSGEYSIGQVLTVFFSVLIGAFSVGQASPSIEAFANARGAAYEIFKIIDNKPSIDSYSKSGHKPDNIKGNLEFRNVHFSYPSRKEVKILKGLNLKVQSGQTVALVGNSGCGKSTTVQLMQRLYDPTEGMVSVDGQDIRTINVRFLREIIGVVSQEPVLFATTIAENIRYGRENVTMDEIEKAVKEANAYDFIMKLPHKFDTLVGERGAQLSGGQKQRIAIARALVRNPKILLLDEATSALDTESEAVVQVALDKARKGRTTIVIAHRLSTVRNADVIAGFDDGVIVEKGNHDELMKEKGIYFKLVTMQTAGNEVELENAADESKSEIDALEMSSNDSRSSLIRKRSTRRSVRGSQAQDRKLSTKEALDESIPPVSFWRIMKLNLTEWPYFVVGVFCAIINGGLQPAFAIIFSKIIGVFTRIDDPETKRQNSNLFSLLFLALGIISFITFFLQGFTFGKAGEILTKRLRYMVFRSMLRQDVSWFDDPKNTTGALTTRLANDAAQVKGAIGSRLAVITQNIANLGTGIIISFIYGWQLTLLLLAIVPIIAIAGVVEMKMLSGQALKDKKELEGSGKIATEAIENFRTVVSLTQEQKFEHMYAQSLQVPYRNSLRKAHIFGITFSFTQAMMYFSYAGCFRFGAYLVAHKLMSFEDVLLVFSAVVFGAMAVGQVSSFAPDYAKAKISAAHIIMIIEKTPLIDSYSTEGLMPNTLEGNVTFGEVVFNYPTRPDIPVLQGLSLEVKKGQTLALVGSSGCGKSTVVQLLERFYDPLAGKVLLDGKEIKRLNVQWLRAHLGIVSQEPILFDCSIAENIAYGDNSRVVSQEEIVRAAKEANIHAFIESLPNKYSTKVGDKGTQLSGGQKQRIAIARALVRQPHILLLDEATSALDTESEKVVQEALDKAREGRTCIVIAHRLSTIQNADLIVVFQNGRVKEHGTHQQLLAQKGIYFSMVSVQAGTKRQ

SMILES	efflux ratio at 120 min, 5 μM (P-gp)	IC50 (cytochrome P450 1A2) [µM]	IC50 (cytochrome P450 3A4) [µM]	IC50 (cytochrome P450 2C9) [µM]	IC50 (cytochrome P450 2D6) [µM]	effect on catalepsy induced by haloperidol (mice; M4 KO mice)	effect on catalepsy induced by haloperidol (mice; WT mice)
Fc1ccc(Cl)c(-c2ccc(N[C@H]3C[C@@H]4CN(CC5CCOCC5)C[C@@H]4C3)nn2)c1 [reference compound]	14	1.1	0.97	0.15	5.3		
Fc1ccc(Cl)c(-c2ccc(N[C@H]3C[C@@H]4CN(Cc5ccccn5)C[C@@H]4C3)nn2)c1 [reference compound]	12.3	> 30	21.7	10.3	> 30		
CN1[C@@H]2C[C@@H](OC(=O)[C@H](CO)c3ccccc3)C[C@H]1[C@@H]1O[C@@H]12 [scopolamine]						ineffective	completely reversed
